This is an account of results in US10004732B2 (Novartis AG, priority 2014, dated 2018).

Data set [1] addresses T1, PI 3-kinase alpha (Homo sapiens, UniProt P42336). Nature of the data set: Kinase Glo Luminescent Kinase Assay (Kglo), assay A. The format is biochemical. The following applies: read-out: Assay A PI3Kα IC50.
The target of data set [2] is T2, PI 3-kinase gamma (Homo sapiens, UniProt P48736). Briefly: TR-FRET Adapta assay, assay E. The format is biochemical. Conditions: read-out: Assay E PI3Kγ IC50.
The subject of data set [3] is IL-8-induced neutrophil shape change in human whole blood. Briefly: Whole blood neutrophil shape change assay (L). Type of data set: cell-based. Conditions: IL-8, human whole blood, read-out: Assay L WBSC IC50.
Data set [4] can be described thus: Microsomal clearance assay (M). The following applies: intrinsic clearance in rat liver microsomes. (Liver microsomes are vesicles of endoplasmic reticulum, rich in cytochrome P450 enzymes.)
Method: The experiments were performed in 96-well glass plates at 37° C. on an automated Tecan EVO platform. Test compounds at a concentration of 10 mM in pure DMSO were diluted 1:1000 in water to 10 μM. […] Reactions were initiated by the addition of 150 μL of a cofactor solution containing 2 mM NADPH.
For another data set, the target named is PI 4-kinase beta (Homo sapiens, UniProt Q9UBF8). Briefly: Kinase Glo Luminescent Kinase Assay (Kglo), assay D. Conditions: read-out: Assay D PI4Kβ IC50. Type of data set: biochemical. (Kinase-Glo reads ATP consumption through a luciferase reaction.)
A further data set concerns the target Vps34 (Homo sapiens, UniProt Q8NEB9). Briefly: Kinase Glo Luminescent Kinase Assay (Kglo), assay C. Conditions: read-out: Assay C VPS34 IC50. The format is biochemical.
The next data set addresses mTOR (Homo sapiens, UniProt P42345). Briefly: Lanthascreen kinase binding assay, assay G. The following applies: read-out: Assay G mTOR IC50. For orientation: Time-resolved FRET reads energy transfer from a long-lived donor to a nearby acceptor.
Data set [5] deals with T3, PI 3-kinase delta (Homo sapiens, UniProt O00329). Nature of the data set: TR-FRET Adapta assay, assay F. Conditions: read-out: Assay F PI3Kδ IC50.
Target sequence in this assay (O00329 whole entry): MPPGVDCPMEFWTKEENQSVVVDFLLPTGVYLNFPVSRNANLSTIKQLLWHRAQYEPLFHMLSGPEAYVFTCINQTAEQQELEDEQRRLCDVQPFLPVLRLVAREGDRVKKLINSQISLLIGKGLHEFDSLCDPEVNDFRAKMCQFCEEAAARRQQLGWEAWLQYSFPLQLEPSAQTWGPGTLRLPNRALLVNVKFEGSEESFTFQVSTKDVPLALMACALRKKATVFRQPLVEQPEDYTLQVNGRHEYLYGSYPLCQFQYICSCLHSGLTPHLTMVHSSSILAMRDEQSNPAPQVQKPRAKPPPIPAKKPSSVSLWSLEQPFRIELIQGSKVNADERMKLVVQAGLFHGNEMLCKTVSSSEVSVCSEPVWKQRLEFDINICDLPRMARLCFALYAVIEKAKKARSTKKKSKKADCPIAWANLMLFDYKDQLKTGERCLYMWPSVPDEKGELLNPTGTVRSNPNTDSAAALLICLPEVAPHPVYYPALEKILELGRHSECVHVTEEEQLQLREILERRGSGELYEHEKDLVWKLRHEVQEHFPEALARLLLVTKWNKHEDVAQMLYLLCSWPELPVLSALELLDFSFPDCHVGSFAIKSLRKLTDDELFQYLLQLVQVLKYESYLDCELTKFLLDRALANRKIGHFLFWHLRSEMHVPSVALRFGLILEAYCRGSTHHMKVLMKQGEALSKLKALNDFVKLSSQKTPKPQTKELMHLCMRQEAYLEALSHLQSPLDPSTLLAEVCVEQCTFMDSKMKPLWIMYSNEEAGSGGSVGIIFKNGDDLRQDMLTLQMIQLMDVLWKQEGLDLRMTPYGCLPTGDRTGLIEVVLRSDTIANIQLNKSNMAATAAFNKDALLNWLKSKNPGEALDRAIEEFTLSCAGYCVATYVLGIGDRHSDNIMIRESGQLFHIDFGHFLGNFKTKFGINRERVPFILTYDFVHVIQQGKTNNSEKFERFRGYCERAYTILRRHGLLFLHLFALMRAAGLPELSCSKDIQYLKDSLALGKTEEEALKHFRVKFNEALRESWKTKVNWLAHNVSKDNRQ
Target sequence in this assay (P27986 461-568 partner): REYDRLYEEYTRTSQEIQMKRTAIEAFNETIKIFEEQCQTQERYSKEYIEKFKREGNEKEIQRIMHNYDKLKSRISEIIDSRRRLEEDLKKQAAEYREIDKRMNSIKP
Data set [6] deals with T4, PI 3-kinase beta (Homo sapiens, UniProt P42338). Nature of the data set: Kinase Glo Luminescent Kinase Assay (Kglo), assay B. The format is biochemical. Conditions: read-out: Assay B PI3Kβ IC50.
Target sequence in this assay (P42338 whole entry): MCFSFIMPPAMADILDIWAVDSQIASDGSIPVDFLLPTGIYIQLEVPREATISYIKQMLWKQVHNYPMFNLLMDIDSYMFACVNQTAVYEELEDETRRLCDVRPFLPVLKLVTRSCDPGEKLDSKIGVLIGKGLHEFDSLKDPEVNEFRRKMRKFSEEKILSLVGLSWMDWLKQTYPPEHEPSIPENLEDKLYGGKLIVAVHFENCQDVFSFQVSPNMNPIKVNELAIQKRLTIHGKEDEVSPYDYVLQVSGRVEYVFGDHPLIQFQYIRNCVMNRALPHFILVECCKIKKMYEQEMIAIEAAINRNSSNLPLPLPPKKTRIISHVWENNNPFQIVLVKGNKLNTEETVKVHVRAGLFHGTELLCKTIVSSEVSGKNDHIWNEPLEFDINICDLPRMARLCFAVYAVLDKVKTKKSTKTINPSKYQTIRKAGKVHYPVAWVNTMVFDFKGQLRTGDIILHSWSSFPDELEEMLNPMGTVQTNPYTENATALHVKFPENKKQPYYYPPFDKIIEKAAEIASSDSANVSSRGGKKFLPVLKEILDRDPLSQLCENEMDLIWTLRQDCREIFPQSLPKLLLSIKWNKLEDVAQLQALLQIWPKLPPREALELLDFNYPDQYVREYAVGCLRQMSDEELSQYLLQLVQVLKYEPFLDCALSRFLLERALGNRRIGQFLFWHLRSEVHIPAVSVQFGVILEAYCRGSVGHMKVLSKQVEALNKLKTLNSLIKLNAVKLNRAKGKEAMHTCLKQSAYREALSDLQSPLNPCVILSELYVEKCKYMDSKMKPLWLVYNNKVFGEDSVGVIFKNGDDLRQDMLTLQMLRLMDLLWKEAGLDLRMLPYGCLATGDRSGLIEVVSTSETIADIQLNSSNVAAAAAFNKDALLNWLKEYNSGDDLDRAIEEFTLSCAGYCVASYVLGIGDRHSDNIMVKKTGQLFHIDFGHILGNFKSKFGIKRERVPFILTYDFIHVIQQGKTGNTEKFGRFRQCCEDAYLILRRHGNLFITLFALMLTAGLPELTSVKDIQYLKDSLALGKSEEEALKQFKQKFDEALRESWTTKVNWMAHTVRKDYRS
Target sequence in this assay (P27986 461-568 partner): as the sequence (P27986 461-568 partner) above
Data set [7] addresses T1, PI 3-kinase alpha. Briefly: Cellular assay H1, p-Akt (S473) in Rat-1 cells, Surefire format. Type of data set: cell-based. The following applies: non-asterisked data: version H1 (Surefire format), Rat-1 cells; read-out: Assay H PI3Kα IC50.
From the text: Cellular Assays for PI 3-Kinase Alpha (H1), Beta (I1) and Delta (J1): Surefire Format
AlphaScreen (Amplified Luminescent Proximity Homogeneous Assay, ALPHA, Perkin Elmer) is a non-radioactive bead-based proximity assay technology to study biomolecular interactions in a homogenous microtiter plate format. The brand name SureFire denotes AlphaScreen assays that are adapted to quantify the phosphorylation of endogenous cellular proteins in cell lysates, by using matched antibody pairs, which consist of an anti-phospho-kinase and an anti-kinase antibody. The assay allows characterization of kinase signaling in cells as well as measurement of kinase inhibitor effects.
Using Rat-1 cells stably expressing myr-HA-tagged versions of the human PI3Kdelta, PI3Kalpha, or PI3Kbeta p110 catalytic subunit isoforms, the assay was developed as a two-plate protocol in a 384-well format.
For compound testing, the cells were seeded at a density of 4000 (Rat-1_PI3Kdelta), 7500 (Rat-1_PI3Kalpha), or 6200 (Rat-1_PI3Kbeta) cells in 20 μl complete growth medium into cell culture treated 384-well plates and were grown at 37° C./5% CO2/90% humidity for 24 h. Shortly before compound transfer, the complete medium was removed, 30 μl assay buffer (DMEM high glucose, 1×MEM NEAA, 10 mM HEPES, 2 mM L-glutamine, 0.1% (w/v) BSA) was added and 10 μl of the compound predilutions were transferred to the cells.
Data set [8] has as its target T2, PI 3-kinase gamma. Briefly: Cellular U937 AKT assay K1 (MSD). The following applies: U937 cells, K1 format; read-out: Assay K1 PI3Kγ IC50. The format is cell-based.
In data set [9] the target is T4, PI 3-kinase beta. Nature of the data set: Cellular assay I1, p-Akt (S473) in Rat-1 cells, Surefire format. The format is cell-based. Conditions: non-asterisked data: version I1 (Surefire format), Rat-1 cells; read-out: Assay I PI3Kβ IC50.
For data set [10], the target named is T3, PI 3-kinase delta. Nature of the data set: Cellular assay J1, p-Akt (S473) in Rat-1 cells, Surefire format. Type of data set: cell-based. The following applies: non-asterisked data: version J1 (Surefire format), Rat-1 cells; read-out: Assay J PI3Kδ IC50.

Counter-ions that a name gives are not always drawn. Like-named read-outs stand apart in the source and are kept apart here.

Sequence of Vps34 (Q8NEB9 whole entry, species assumed): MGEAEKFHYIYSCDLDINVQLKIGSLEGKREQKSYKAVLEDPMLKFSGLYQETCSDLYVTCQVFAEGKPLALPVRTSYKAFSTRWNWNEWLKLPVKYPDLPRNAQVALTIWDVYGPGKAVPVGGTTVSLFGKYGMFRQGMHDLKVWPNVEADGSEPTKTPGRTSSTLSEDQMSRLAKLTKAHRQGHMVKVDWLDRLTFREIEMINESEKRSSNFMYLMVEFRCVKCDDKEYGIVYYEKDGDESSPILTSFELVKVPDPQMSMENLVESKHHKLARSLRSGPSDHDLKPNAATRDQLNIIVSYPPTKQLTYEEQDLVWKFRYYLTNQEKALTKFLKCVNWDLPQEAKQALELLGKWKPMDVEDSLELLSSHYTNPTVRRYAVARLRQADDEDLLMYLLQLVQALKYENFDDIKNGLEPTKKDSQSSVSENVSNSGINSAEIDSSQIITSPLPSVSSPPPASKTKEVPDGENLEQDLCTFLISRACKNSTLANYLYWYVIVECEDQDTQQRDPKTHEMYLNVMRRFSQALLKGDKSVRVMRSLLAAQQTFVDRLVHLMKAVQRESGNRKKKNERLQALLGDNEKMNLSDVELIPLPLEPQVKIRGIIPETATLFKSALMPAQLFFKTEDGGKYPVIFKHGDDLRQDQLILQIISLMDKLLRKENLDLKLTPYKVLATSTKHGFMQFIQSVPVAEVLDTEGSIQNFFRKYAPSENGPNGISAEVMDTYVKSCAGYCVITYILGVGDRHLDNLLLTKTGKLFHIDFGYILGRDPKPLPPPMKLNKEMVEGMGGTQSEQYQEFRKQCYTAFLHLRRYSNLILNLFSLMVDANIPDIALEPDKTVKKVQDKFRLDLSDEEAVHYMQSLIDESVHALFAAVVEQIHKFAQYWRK
T2 sequence (P48736 whole entry): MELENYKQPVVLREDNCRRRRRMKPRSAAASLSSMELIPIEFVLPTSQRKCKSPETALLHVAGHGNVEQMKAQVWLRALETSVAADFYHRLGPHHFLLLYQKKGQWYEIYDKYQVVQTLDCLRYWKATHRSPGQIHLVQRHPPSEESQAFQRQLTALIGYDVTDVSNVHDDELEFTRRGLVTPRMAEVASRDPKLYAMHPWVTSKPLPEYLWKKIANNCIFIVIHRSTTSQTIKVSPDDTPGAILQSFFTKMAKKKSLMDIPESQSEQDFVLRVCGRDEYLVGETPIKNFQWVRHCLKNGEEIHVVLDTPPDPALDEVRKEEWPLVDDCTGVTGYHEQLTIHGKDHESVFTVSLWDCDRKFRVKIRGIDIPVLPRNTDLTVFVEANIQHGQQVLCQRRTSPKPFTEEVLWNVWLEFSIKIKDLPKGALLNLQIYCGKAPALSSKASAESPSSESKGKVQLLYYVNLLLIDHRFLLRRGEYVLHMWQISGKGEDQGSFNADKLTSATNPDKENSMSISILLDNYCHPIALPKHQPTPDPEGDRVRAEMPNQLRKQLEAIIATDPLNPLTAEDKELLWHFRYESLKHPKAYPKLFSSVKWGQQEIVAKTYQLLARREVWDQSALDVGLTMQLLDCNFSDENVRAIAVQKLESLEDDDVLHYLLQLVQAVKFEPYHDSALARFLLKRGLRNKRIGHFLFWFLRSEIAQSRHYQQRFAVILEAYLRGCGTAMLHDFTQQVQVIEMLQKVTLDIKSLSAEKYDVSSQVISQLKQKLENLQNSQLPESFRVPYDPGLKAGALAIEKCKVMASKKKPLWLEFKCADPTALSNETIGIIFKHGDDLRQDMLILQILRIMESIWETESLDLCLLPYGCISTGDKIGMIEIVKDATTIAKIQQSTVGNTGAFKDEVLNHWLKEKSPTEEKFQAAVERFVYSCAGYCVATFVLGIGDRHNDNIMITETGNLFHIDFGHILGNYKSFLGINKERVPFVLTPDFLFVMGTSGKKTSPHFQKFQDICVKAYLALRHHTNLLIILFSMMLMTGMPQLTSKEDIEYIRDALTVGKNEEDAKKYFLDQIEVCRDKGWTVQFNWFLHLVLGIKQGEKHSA
Sequence of PI 4-kinase beta (Q9UBF8 whole entry): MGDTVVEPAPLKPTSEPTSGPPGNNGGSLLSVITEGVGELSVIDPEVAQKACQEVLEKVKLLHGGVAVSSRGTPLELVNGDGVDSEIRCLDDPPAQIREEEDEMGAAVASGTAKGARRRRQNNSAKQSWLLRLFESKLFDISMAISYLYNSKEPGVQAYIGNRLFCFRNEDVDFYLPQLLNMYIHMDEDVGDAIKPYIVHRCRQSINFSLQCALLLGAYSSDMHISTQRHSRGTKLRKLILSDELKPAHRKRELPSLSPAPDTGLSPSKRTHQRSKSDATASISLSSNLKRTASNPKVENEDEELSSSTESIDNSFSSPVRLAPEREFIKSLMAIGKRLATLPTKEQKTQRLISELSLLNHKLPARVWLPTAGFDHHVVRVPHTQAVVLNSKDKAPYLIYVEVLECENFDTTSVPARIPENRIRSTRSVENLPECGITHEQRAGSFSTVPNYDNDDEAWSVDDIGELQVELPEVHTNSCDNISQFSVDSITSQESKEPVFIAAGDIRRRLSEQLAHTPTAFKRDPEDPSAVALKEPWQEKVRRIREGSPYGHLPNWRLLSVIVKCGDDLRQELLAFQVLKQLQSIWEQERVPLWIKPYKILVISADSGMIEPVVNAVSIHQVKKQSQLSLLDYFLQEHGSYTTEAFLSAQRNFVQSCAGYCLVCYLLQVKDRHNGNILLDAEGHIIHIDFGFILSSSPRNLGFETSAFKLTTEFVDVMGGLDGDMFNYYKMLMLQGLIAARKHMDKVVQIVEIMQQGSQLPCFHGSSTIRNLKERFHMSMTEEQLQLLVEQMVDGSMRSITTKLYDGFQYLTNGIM
Method for mTOR: Lanthascreen™ Kinase Binding Assay for mTOR (G)
Binding of an inhibitor to the kinase competes for binding with the tracer, resulting in a loss of FRET.
50 nL of compound dilutions were dispensed onto white 384-well small volume polystyrene plate.

`Cc1ccc(S(=O)(=O)NCC[C@@H](O)C(F)(F)F)cc1-c1cnc(N)c(-c2cn(C)nc2C)n1` (single isomer, unassigned) [Example 52a, (R)-3-(5-Amino-6-(1,3-dimethyl-1H-pyrazol-4-yl)pyrazin-2-yl)-4-methyl-N-(4,4,4-trifluoro-3-hydroxybutyl)benzenesulfonamide or (S)-3-(5-Amino-6-(1,3-dimethyl-1H-pyrazol-4-yl)pyrazin-2-yl)-4-methyl-N-(4,4,4-trifluoro-3-hydroxybutyl)benzenesulfonamide]: the half-maximal inhibitory concentration (IC50) at PI 3-kinase alpha [1] was 170 nM; on PI 3-kinase gamma [2] it was 16 nM; in data set [3], 806 nM; on PI 4-kinase beta, 5500 nM; on Vps34, above 10000 nM. For the same compound, the “Assay M RLM CI(int)” value in data set [4] was found to be 60 µL/min/mg.
Take `Cc1ccc(S(=O)(=O)NCC2(O)CCOCC2)cc1-c1cnc(N)c(-n2cncn2)n1` [Example 32, 3-(5-Amino-6-[1,2,4]triazol-1-yl-pyrazin-2-yl)-N-(4-hydroxy-tetrahydropyran-4-ylmethyl)-4-methylbenzenesulfonamide]: the IC50 in data set [3] (Homo sapiens, Neutrophil) is 668 nM; at PI 4-kinase beta it was 4050 nM; on mTOR it was above 10000 nM; at Vps34 it was above 10000 nM. Moreover, the “Assay M RLM CI(int)” value in [4] was 28 µL/min/mg.
In the case of `Cc1ncc(-c2nc(-c3cc(S(=O)(=O)NCC4COC4)ccc3C)cnc2N)s1` [Example 45.1, 3-(5-Amino-6-(2-methylthiazol-5-yl)pyrazin-2-yl)-4-methyl-N-(oxetan-3-ylmethyl)benzenesulfonamide], the IC50 on PI 3-kinase delta [5] came to 80 nM; on PI 3-kinase alpha [1], 50 nM; at PI 3-kinase gamma [2], 11 nM; in [3] (Homo sapiens, Neutrophil) it was 306 nM; on PI 3-kinase beta [6], 200 nM; at PI 4-kinase beta, 3000 nM. In addition, on Vps34, the IC50 is 1900 nM. Besides, the “Assay M RLM CI(int)” value in [4] was found to be 70 µL/min/mg.
In the case of `Cc1ccc(S(=O)(=O)NCC(C)(C)O)cc1-c1cnc(N)c(-c2nc(C(C)C)no2)n1` [Example 97, 3-(5-Amino-6-(3-isopropyl-1,2,4-oxadiazol-5-yl)pyrazin-2-yl)-N-(2-hydroxy-2-methylpropyl)-4-methylbenzenesulfonamide], the IC50 in [3] (Homo sapiens, Neutrophil) is 2150 nM; at PI 4-kinase beta it was above 10000 nM; at mTOR, above 10000 nM; on Vps34 it was above 10000 nM. Besides, the “Assay M RLM CI(int)” value in data set [4] stood at 60 µL/min/mg.
Regarding `Cc1ccc(S(=O)(=O)NCC(F)(F)F)cc1-c1cnc(N)c(-n2cncn2)n1` [Example 127, 3-(5-Amino-6-(1H-1,2,4-triazol-1-yl)pyrazin-2-yl)-4-methyl-N-(2,2,2-trifluoroethyl)benzenesulfonamide], the half-maximal inhibitory concentration (IC50) is 880 nM on PI 3-kinase delta [5]; 300 nM at PI 3-kinase alpha [1]; 24 nM at PI 3-kinase gamma [2]; 1500 nM in data set [3] (Homo sapiens, Neutrophil); 1100 nM at PI 3-kinase beta [6]; 4400 nM at PI 4-kinase beta. The concentration for half-maximal inhibition (IC50) was 2600 nM on mTOR and above 10000 nM on Vps34.
With `Cc1ccc(S(=O)(=O)NC2CC(F)(F)C2)cc1-c1cnc(N)c(-n2cncn2)n1` [Example 127.7], the IC50 on PI 3-kinase delta [5] was found to be 1100 nM; at PI 3-kinase alpha [1] it was 260 nM; at PI 3-kinase gamma [2] it was 40 nM; in data set [3] (Homo sapiens, Neutrophil), 3990 nM; at PI 3-kinase beta [6] it was 1300 nM; at PI 4-kinase beta, 6300 nM. The figures for the IC50 on mTOR and at Vps34 were 1500 nM and above 10000 nM, respectively.
Take `Cc1ccc(S(=O)(=O)NCC2(O)CCC2)cc1-c1cnc(N)c(-n2cncn2)n1` [Example 127.16]: the IC50 stood at 1100 nM at PI 3-kinase delta [5]; 330 nM at PI 3-kinase alpha [1]; 45 nM at PI 3-kinase gamma [2]; 1720 nM in [3] (Homo sapiens, Neutrophil); 810 nM on PI 3-kinase beta [6]; 5000 nM on PI 4-kinase beta. Moreover, the concentration for half-maximal inhibition (IC50) on mTOR was 8700 nM; on Vps34, above 10000 nM.
For `Cc1ccc(S(=O)(=O)NC[C@@H]2CCOC2)cc1-c1cnc(N)c(-n2cncn2)n1` [Example 127.26], the half-inhibitory concentration (IC50) on PI 3-kinase delta [5] amounted to 230 nM; at PI 3-kinase alpha [1], 570 nM; on PI 3-kinase gamma [2] it was 150 nM; in data set [3] (Homo sapiens, Neutrophil), 1790 nM; on PI 3-kinase beta [6], 2000 nM; at PI 4-kinase beta, 5200 nM. For the same compound, the results for the IC50 at mTOR and at Vps34 were 5900 nM and above 10000 nM, respectively.
Take `Cc1ccc(S(=O)(=O)NC[C@@H]2CCC(C)(C)O2)cc1-c1cnc(N)c(-n2cncn2)n1` [Example 127.39]: the IC50 at PI 3-kinase delta [5] is 2100 nM; on PI 3-kinase alpha [1], 1400 nM; at PI 3-kinase gamma [2], 100 nM; in [3] (Homo sapiens, Neutrophil) it was 6280 nM; at PI 3-kinase beta [6], 2300 nM; at PI 4-kinase beta, above 10000 nM. Besides, the IC50 on mTOR was 9300 nM; at Vps34, above 10000 nM.
In the case of `Cc1ccc(S(=O)(=O)N[C@H](C#N)CO)cc1-c1cnc(N)c(-n2cncn2)n1` [Example 127.48], the IC50 was 3200 nM on PI 3-kinase delta [5]; 1200 nM on PI 3-kinase alpha [1]; 60 nM on PI 3-kinase gamma [2]; 2490 nM in data set [3] (Homo sapiens, Neutrophil); 6200 nM on PI 3-kinase beta [6]; 5900 nM on PI 4-kinase beta. At Vps34, the IC50 is above 10000 nM.
Turning to `Cc1ccc(S(=O)(=O)NC2CCC2)cc1-c1cnc(N)c(-n2cncn2)n1` [Example 127.54], the IC50 on PI 3-kinase delta [5] was 1100 nM; on PI 3-kinase alpha [1], 180 nM; on PI 3-kinase gamma [2] it was 32 nM; in data set [3] (Homo sapiens, Neutrophil) it was above 100000 nM; on PI 3-kinase beta [6], 1100 nM; on PI 4-kinase beta, 2600 nM. Besides, the IC50 on mTOR was 1800 nM; at Vps34 it was above 10000 nM.
With `Cc1ccc(S(=O)(=O)NC[C@H]2CCNC2)cc1-c1cnc(N)c(-n2cncn2)n1` [Example 127.58, (S)-3-(5-amino-6-(1H-1,2,4-triazol-1-yl)pyrazin-2-yl)-4-methyl-N-(pyrrolidin-3-ylmethyl)benzenesulfonamide trifluoroacetic acid salt], the IC50 at PI 3-kinase delta [5] was 460 nM; on PI 3-kinase alpha [1] it was 1300 nM; at PI 3-kinase gamma [2], 42 nM; in data set [3] (Homo sapiens, Neutrophil), 23600 nM; at PI 3-kinase beta [6] it was 1300 nM; on PI 4-kinase beta, above 10000 nM. The IC50 is 1200 nM at mTOR and above 10000 nM on Vps34.
Consider `Cc1cc(-c2nc(-c3cc(S(=O)(=O)NC4CCC(CO)CC4)ccc3C)cnc2N)ccn1` (stereo not drawn) [Example 129.1, 3-(5-amino-6-(2-methylpyridin-4-yl)pyrazin-2-yl)-N-(4-(hydroxymethyl)cyclohexyl)-4-methylbenzenesulfonamide], for which the 50% inhibitory concentration (IC50) worked out at 250 nM on PI 3-kinase delta [5]; 190 nM on PI 3-kinase alpha [1]; 23 nM on PI 3-kinase gamma [2]; 721 nM in data set [3] (Homo sapiens, Neutrophil); 6300 nM on PI 3-kinase beta [6]; 6500 nM at PI 4-kinase beta. The 50% inhibitory concentration (IC50) is 6300 nM at mTOR and above 9100 nM at Vps34.
Take `Cc1cc(-c2nc(-c3cc(S(=O)(=O)NCC4CCOC4)ccc3C)cnc2N)ccn1` (stereo not drawn) [Example 129.18, 3-(5-amino-6-(2-methylpyridin-4-yl)pyrazin-2-yl)-4-methyl-N-((tetrahydrofuran-3-yl)methyl)benzenesulfonamide]: the IC50 worked out at 400 nM at PI 3-kinase delta [5]; 690 nM on PI 3-kinase alpha [1]; 64 nM at PI 3-kinase gamma [2]; 8110 nM at PI 3-kinase beta [6]; 4920 nM at PI 3-kinase alpha [7]; 528 nM at PI 3-kinase gamma [8]. For the same compound, the IC50 is above 10000 nM at PI 3-kinase beta [9]; above 9100 nM at PI 4-kinase beta; 5630 nM on PI 3-kinase delta [10]; above 9100 nM on mTOR; above 9100 nM on Vps34. Also, the “Assay M RLM CI(int)” value in data set [4] worked out at 97 µL/min/mg.
As to `Cc1cc(-c2nc(-c3cc(S(=O)(=O)NC4CCN(C(C)C)CC4)ccc3C)cnc2N)ccn1` [Example 129.21, 3-(5-amino-6-(2-methylpyridin-4-yl)pyrazin-2-yl)-N-(1-isopropylpiperidin-4-yl)-4-methylbenzenesulfonamide], the IC50 on PI 3-kinase delta [5] is 1000 nM; on PI 3-kinase alpha [1], 2900 nM; at PI 3-kinase gamma [2], 53 nM; in data set [3] (Homo sapiens, Neutrophil), 8950 nM; on PI 3-kinase beta [6], above 9100 nM; on PI 4-kinase beta, above 9100 nM. Further, the half-inhibitory concentration (IC50) at mTOR and on Vps34 was above 9100 nM throughout.
As for `CCN1CCC[C@@H]1CNS(=O)(=O)c1ccc(C)c(-c2cnc(N)c(-c3ccnc(C)c3)n2)c1` [Example 129.25, (R)-3-(5-amino-6-(2-methylpyridin-4-yl)pyrazin-2-yl)-N-((1-ethylpyrrolidin-2-yl)methyl)-4-methylbenzenesulfonamide], the IC50 at PI 3-kinase delta [5] is 380 nM; on PI 3-kinase alpha [1] it was 540 nM; at PI 3-kinase gamma [2], 42 nM; in data set [3] (Homo sapiens, Neutrophil), 2950 nM; at PI 3-kinase beta [6] it was 2300 nM; at PI 4-kinase beta, above 9100 nM. The IC50 at mTOR and at Vps34 was above 9100 nM in each case.

The IC50 is the concentration that inhibits the measured activity by half.
